How the values were obtained:
Format in all cases: biochemical
[1] = target: T1, VEGFR2 (Homo sapiens, UniProt P35968); assay: Assay I: kinase inhibition (HTRF KinEASE-TK), VEGFR2; settings: Table 1; ATP working concentration 5 μM, substrate TK 1 μM
T1 construct: purchased Carna 08-191

[2] = target: T2, FGFR3 V555M (Homo sapiens, UniProt P22607, V555M); assay: Assay I: inhibitory activity against FGFR mutants (HTRF KinEASE-TK); settings: Table 1; ATP working concentration 20 μM, substrate TK 1 μM
T2 construct: purchased Signalchem F06-12GG
Procedure: (§1) Assay I: Determination of Inhibitory Activity Against FGFR Mutants
(§2) 1×Kinase reaction buffer was formulated with 1×volume of 5× kinase reaction buffer and 4×volume of water; 5 mM MgCl2; and 1 mM DTT.
2.3 Screening of Compounds: • 1. Diluting a compound 4-fold in a dilution plate with DMSO, with a starting compound concentration of 2 mM (4 mM for Nentedanib). • 2. Diluting the compound 40-fold into 1× kinase reaction buffer and shaking it on a shaker for 20 minutes. • 3. […] Adding 1 μl of the compound diluted in buffer to each well, sealing the plate with a sealing membrane and centrifuging the plate at 1000 g for 30 seconds and leaving it at room temperature for 10 minutes. • 6. Formulating 2.5×TK-substrate-biotin and ATP mixture with 1× enzyme reaction buffer and adding 2 μl of K-substrate-biotin/ATP mixture to the reaction plate. • 7. Sealing the plate with a sealing membrane and centrifuging the plate at 1000 g for 30 seconds and allowing it to react at room temperature for 50 minutes. • 8. Formulating 4×Sa-XL 665 (250 nM) with HTRF assay buffer. • 9. Adding 5 μl Sa-XL 665 and 5 μl TK-Antibody-Cryptate to each well, centrifuging it at 1000 g for 30 seconds, and allowing it to react for 1 hour at room temperature. • 10. Reading fluorescence signals at 615 nm (Cryptate) and 665 nm (XL665) with Biotek. 3. Data Analysis
3.1 Calculation of the ratio for each well: the ratio was calculated as 665/615 nm.
(§3) 3.3 Calculation of IC50 and plotting of inhibition curves for the compounds.
(§4) The IC50 (half inhibition concentration) of a compound was obtained using the following non-linear fitting equation, wherein data analysis was performed using Graphpad 6.0 software.
(§5) Data were exported from Envision and analyzed manually. The ratios were converted to inhibition rates and IC50 was calculated by Prism GraphPad 6.0 from the inhibition rates. IC50 was calculated again by the ratios to verify accuracy of the results.

[3] = target: T3, FGFR1 V561M (Homo sapiens, UniProt P11362, V561M); assay: as above; settings: Table 1; ATP working concentration 5 μM, substrate TK 1 μM
T3 construct: purchased Signalchem F04-13G
Procedure: as §1, §2
(§6) 2.3 Screening of Compounds: • 1. […] Adding 1 μl of the compound diluted in buffer to each well, sealing the plate with a sealing membrane and centrifuging the plate at 1000 g for 30 seconds and leaving it at room temperature for 10 minutes. • 6. Formulating 2.5×TK-substrate-biotin and ATP mixture with 1× enzyme reaction buffer and adding 2 μl of K-substrate-biotin/ATP mixture to the reaction plate. • 7. Sealing the plate with a sealing membrane and centrifuging the plate at 1000 g for 30 seconds and allowing it to react at room temperature for 50 minutes. • 8. […] 3. Data Analysis
as §3, §4, §5

[4] = target: FGFR3 K650E (Homo sapiens, UniProt P22607, K650E); assay: as above; settings: Table 1; ATP working concentration 50 μM, substrate TK 1 μM
Procedure: as §1, §2, §6, §3, §4, §5

[5] = target: T4, FGFR2 V564F (Homo sapiens, UniProt P21802, V564F); assay: as above; settings: Table 1; ATP working concentration 10 μM, substrate TK 1 μM
T4 construct: purchased Signalchem F05-12FG
Procedure: as §1, §2, §6, §3, §4, §5

[6] = target: T5, FGFR2 (Homo sapiens, UniProt P21802); assay: Assay II: inhibitory activity against wild-type FGFR (HTRF KinEASE-TK); settings: Table 2, ATP working concentration 50 μM, substrate TK 1 μM
T5 construct: purchased Carna 08-134
Procedure: (§7) Assay II: Determination of inhibitory activity against wild-type FGFR
as §2
(§8) 3. Formulating 2×FGFR1/FGFR2/FGFR3 with 1× of enzyme reaction buffer.
(§9) 4. Adding 2 μl FGFR1/FGFR2/FGFR3 kinase (formulated in step 3) to each well of the reaction plate.
(§10) 5. Adding 1 μl of the compound diluted in buffer to each well, sealing the plate with a sealing membrane and centrifuging the plate at 1000 g for 30 seconds and leaving it at room temperature for 10 minutes.
(§11) 6. Formulating 2.5×TK-substrate-biotin and ATP mixture with 1× enzyme reaction buffer and adding 2 μl of K-substrate-biotin/ATP mixture to the reaction plate.
(§12) 7. Sealing the plate with a sealing membrane and centrifuging the plate at 1000 g for 30 seconds and allowing it to react at room temperature for 50 minutes.
as §3, §4, §5

[7] = target: T6, FGFR3 (Homo sapiens, UniProt P22607); assay: as above; settings: Table 2, ATP working concentration 50 μM, substrate TK 1 μM
T6 construct: purchased Carna 08-135
Procedure: as §7, §2, §8, §9, §10, §11, §12, §3, §4, §5

[8] = target: T7, FGFR1 (Homo sapiens, UniProt P11362); assay: as above; settings: Table 2, ATP working concentration 50 μM, substrate TK 1 μM
T7 construct: purchased Carna 08-133
Procedure: as §7, §2, §8, §9, §10, §11, §12, §3, §4, §5

T4 sequence (P21802 22-821 V564F): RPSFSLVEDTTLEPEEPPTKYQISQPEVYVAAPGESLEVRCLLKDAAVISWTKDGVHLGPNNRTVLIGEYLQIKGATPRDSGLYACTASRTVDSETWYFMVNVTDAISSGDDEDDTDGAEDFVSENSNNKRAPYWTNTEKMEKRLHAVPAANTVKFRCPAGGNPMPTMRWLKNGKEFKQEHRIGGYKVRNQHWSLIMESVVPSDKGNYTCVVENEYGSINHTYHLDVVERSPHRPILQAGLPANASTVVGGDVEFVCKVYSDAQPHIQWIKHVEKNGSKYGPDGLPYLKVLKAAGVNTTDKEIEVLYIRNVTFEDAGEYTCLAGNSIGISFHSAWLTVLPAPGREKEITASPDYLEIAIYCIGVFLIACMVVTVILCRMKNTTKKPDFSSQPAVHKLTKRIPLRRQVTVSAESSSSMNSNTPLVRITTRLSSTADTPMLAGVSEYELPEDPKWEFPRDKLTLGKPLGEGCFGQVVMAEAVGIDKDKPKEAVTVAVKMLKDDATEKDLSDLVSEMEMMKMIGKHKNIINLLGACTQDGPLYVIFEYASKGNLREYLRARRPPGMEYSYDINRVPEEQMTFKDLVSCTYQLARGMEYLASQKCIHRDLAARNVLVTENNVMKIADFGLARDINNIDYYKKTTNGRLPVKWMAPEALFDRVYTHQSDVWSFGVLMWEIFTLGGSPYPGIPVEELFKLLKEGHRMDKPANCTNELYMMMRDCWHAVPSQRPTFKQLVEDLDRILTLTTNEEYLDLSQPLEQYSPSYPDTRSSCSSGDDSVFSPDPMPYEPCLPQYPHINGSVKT
T6 sequence (P22607 23-806): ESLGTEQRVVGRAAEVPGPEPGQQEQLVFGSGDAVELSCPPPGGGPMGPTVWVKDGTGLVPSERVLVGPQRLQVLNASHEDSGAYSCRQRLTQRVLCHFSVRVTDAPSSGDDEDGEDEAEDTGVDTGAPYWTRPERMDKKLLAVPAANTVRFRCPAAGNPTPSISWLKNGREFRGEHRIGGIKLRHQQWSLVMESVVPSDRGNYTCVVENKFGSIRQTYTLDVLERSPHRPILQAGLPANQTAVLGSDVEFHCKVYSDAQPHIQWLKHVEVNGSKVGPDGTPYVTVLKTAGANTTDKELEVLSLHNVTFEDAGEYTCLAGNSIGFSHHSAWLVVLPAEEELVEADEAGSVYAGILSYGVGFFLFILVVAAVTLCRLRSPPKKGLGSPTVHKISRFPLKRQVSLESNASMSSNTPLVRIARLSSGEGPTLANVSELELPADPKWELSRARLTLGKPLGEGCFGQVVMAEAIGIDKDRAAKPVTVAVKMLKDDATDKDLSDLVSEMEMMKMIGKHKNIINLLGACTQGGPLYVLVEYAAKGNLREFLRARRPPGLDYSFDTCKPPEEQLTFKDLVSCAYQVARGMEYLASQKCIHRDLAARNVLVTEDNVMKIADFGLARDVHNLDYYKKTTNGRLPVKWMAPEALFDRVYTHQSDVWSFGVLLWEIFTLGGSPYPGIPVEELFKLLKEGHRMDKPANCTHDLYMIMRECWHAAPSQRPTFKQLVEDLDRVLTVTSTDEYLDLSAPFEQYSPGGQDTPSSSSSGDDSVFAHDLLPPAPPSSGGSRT
T3 sequence (P11362 22-822 V561M): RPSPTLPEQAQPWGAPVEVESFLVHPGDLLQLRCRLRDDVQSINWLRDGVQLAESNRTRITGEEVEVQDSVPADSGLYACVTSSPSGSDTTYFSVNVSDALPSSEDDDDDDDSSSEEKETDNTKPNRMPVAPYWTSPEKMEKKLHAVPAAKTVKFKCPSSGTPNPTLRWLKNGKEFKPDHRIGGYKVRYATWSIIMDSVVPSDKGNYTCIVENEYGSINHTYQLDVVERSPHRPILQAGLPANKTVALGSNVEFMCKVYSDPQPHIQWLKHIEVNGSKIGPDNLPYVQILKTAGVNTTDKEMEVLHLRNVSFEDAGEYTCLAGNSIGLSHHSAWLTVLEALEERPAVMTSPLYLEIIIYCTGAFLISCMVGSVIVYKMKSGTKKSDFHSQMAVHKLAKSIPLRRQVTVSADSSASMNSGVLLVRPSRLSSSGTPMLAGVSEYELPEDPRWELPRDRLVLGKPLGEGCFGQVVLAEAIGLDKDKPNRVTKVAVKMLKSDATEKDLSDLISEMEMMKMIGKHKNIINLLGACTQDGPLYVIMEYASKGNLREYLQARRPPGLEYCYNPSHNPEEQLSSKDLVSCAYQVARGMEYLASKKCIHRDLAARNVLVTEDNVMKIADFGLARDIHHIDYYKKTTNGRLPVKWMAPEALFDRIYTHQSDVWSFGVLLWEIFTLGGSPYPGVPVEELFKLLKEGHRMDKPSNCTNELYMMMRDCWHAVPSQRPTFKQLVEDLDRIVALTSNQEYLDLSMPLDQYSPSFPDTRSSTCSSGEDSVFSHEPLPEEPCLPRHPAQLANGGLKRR
T7 sequence (P11362 22-822): as the sequence (P11362 22-822 V561M) above, with M540V counted along it
T1 sequence (P35968 20-1356): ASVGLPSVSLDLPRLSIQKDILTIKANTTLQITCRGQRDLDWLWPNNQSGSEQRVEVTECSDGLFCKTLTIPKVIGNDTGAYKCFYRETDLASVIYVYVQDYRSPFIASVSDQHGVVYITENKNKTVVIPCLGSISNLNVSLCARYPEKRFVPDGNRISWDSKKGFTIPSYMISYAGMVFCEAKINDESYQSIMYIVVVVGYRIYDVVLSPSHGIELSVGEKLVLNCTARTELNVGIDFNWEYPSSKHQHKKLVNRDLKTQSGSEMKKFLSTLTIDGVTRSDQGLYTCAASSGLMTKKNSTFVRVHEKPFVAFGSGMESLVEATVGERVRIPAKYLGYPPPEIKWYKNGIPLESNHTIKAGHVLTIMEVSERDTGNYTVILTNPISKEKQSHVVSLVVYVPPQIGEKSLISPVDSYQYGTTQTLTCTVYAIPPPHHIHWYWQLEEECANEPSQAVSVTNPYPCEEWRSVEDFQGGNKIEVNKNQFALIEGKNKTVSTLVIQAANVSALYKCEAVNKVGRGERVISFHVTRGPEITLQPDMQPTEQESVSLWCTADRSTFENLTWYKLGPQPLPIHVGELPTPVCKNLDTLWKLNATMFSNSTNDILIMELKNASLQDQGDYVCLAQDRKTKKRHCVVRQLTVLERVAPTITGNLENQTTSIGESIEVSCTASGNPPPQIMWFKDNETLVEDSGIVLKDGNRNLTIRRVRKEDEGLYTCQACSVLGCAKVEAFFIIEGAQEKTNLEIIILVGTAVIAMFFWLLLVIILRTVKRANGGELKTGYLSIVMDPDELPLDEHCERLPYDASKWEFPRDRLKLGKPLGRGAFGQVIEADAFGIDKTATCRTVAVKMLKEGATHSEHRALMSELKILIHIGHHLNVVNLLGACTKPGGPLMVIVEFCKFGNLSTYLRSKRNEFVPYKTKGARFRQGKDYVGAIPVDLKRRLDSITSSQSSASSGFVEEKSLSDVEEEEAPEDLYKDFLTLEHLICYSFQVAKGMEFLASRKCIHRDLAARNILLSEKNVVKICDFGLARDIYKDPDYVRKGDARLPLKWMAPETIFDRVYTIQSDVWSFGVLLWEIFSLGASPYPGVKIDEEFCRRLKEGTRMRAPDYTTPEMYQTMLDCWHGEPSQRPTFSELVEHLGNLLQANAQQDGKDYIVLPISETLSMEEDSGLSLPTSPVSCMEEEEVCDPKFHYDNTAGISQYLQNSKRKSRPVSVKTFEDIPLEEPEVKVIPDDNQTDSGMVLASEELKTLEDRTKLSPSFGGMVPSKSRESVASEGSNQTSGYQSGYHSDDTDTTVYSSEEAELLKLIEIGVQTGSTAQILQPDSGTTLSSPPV
T2 sequence (P22607 23-806 V555M): as the sequence (P22607 23-806) above, with V533M counted along it
Sequence of FGFR3 K650E (P22607 23-806 K650E): as the sequence (P22607 23-806) above, with K628E counted along it
T5 sequence (P21802 22-821): as the sequence (P21802 22-821 V564F) above, with F543V counted along it

Row | SMILES | IC50 [1] | IC50 [2] | IC50 [3] | IC50 [4] | IC50 [5] | IC50 [6] | IC50 [7] | IC50 [8]
1 | CC(Oc1ccc2[nH]nc(C(=O)Nc3cnn(CCO)c3)c2c1)c1c(Cl)cncc1Cl (stereo not shown) [Compound 2, 5-(1-(3,5-dichloropyridin-4-yl)ethoxy)-N-(1-(2-hydroxyethyl)-1H-pyrazol-4-yl)-1H-indazole-3-carboxamide] | 176 nM | 2.2 nM | 7 nM | 30 nM | 2 nM |  |  | 
2 | CC(Oc1ccc2[nH]nc(C(=O)Nc3cnn(C(C)CC#N)c3)c2c1)c1c(Cl)cncc1Cl (stereo not shown) [Compound 5, N-(1-(1-cyanopropan-2-yl)-1H-pyrazol-4-yl)-5-(1-(3,5-dichloropyridin-4-yl)ethoxy)-1H-indazole-3-carboxamide] |  | 4.6 nM | 7.2 nM | 33.4 nM | 2.4 nM |  |  | 
3 | CC(Oc1ccc2[nH]nc(C(=O)Nc3cnn(C4CC(O)C4)c3)c2c1)c1c(Cl)cncc1Cl (stereo not shown) [Compound 12, 5-(1-(3,5-dichloropyridin-4-yl)ethoxy)-N-(1-(3-hydroxycyclobutyl)-1H-pyrazol-4-yl)-1H-indazole-3-carboxamide] | 208 nM | 0.74 nM | 1.9 nM |  | 0.48 nM | 24.5 nM | 42.9 nM | 45.1 nM
4 | C[C@@H](Oc1ccc2[nH]nc(C(=O)Nc3cnn(CCO)c3)c2c1)c1c(Cl)cncc1Cl [Compound 7, (R)-5-(1-(3,5-dichloropyridin-4-yl)ethoxy)-N-(1-(2-hydroxyethyl)-1H-pyrazol-4-yl)-1H-indazole-3-carboxamide] | 97.6 nM | 0.73 nM | 5.2 nM |  | 0.42 nM | 7.6 nM | 42.6 nM | 27.5 nM
5 | CC(Oc1ccc2[nH]nc(C(=O)Nc3cnn(CCC#N)c3)c2c1)c1c(Cl)cncc1Cl (stereo not shown) [Compound 11, N-(1-(2-cyanoethyl)-1H-pyrazol-4-yl)-5-(1-(3,5-dichloropyridin-4-yl)ethoxy)-1H-indazole-3-carboxamide] | 230 nM | 1.7 nM | 5.6 nM |  | 1.1 nM |  |  | 
6 | CC(Oc1ccc2[nH]nc(C(=O)Nc3ccc(N4C[C@@H](C)N[C@@H](C)C4)cn3)c2c1)c1c(Cl)cncc1Cl (stereo partly drawn) [Compound 16, 5-(1-(3,5-dichloropyridin-4-yl)ethoxy)-N-(5-((3S, 5R)-3,5-dimethylpiperazin-1-yl)pyridin-2-yl)-1H-indazole-3-carboxamide] | 1210 nM | 41.7 nM | 22.8 nM |  | 34.1 nM |  |  | 
7 | CC(Oc1ccc2[nH]nc(C(=O)Nc3ccc(N4C[C@@H](C)N[C@@H](C)C4)nc3)c2c1)c1c(Cl)cncc1Cl (stereo partly drawn) [Compound 8, 5-(1-(3,5-dichloropyridin-4-yl)ethoxy)-N-(6-((3S, 5R)-3,5-dimethylpiperazin-1-yl)pyridin-3-yl)-1H-indazole-3-carboxamide] | 224 nM | 2.6 nM | 2.3 nM |  | 4 nM | 58.6 nM | 106 nM | 69.7 nM
8 | CC(Oc1ccc2[nH]nc(C(=O)Nc3ccc(N4C[C@@H](C)N[C@@H](C)C4)c(F)c3)c2c1)c1c(Cl)cncc1Cl (stereo partly drawn) [Compound 17, 5-(1-(3,5-dichloropyridin-4-yl)ethoxy)-N-(4-((3S, 5R)-3,5-dimethylpiperazin-1-yl)-3-fluorophenyl)-1H-indazole-3-carboxamide] | 173 nM | 6.9 nM | 8.6 nM |  | 2.3 nM |  |  | 

Further lines, results first:

Row | IC50 [1] | IC50 [2] | IC50 [3] | IC50 [4] | IC50 [5] | IC50 [6] | IC50 [7] | IC50 [8] | SMILES
9 |  | 8.6 nM | 6.3 nM | 26.8 nM | 2.3 nM |  |  |  | CC(Oc1ccc2[nH]nc(C(=O)Nc3ccc(N4C[C@@H](C)N[C@@H](C)C4)cc3)c2c1)c1c(Cl)cncc1Cl (stereo partly drawn) [Compound 1, 5-(1-(3,5-dichloropyridin-4-yl)ethoxy)-N-(4-((3S,5R)-3,5-dimethylpiperazin-1-yl)phenyl)-1H-indazole-3-carboxamide]
10 | 24.7 nM | 0.27 nM | 0.47 nM |  | 0.14 nM | 9.5 nM | 19.2 nM | 11.1 nM | CC(Oc1ccc2[nH]nc(C(=O)Nc3cnn(C4CCN(C)CC4)c3)c2c1)c1c(Cl)cncc1Cl (stereo not shown) [Compound 14, 5-(1-(3,5-dichloropyridin-4-yl)ethoxy)-N-(1-(1-methylpiperidin-4-yl)-1H-pyrazol-4-yl)-1H-indazole-3-carboxamide]
11 | 179 nM | 0.79 nM | 0.91 nM |  | 0.6 nM |  |  |  | CC(Oc1ccc2[nH]nc(C(=O)Nc3cnn(CC4CCN(C)CC4)c3)c2c1)c1c(Cl)cncc1Cl (stereo not shown) [Compound 22]
12 | 1390 nM | 2 nM | 1.7 nM |  | 3.2 nM | 48 nM | 98.8 nM | 64.5 nM | CCN1CCN(c2ccc(NC(=O)c3n[nH]c4ccc(OC(C)c5c(Cl)cncc5Cl)cc34)cc2)CC1 (stereo not shown) [Compound 10, 5-(1-(3,5-dichloropyridin-4-yl)ethoxy)-N-(4-(4-ethylpiperazin-1-yl)phenyl)-1H-indazole-3-carboxamide]
13 | 84.1 nM | 0.94 nM | 2.3 nM |  | 0.66 nM | 21.3 nM | 52.2 nM | 27.7 nM | C[C@@H]1CN(c2ccc(NC(=O)c3n[nH]c4ccc(O[C@H](C)c5c(Cl)cncc5Cl)cc34)cc2)C[C@H](C)N1 [Compound 6, 5-((R)-1-(3,5-dichloropyridin-4-yl)ethoxy)-N-(4-((3S,5R)-3,5-dimethylpiperazin-1-yl)phenyl)-1H-indazole-3-carboxamide]
14 | 141 nM | 1.1 nM | 1.6 nM |  | 0.63 nM |  |  |  | CCN1CCC(c2ccc(NC(=O)c3n[nH]c4ccc(OC(C)c5c(Cl)cncc5Cl)cc34)cc2)CC1 (stereo not shown) [Compound 18, 5-(1-(3,5-dichloropyridin-4-yl)ethoxy)-N-(4-(1-ethylpiperidin-4-yl)phenyl)-1H-indazole-3-carboxamide]
15 | 152 nM | 1.1 nM | 1 nM |  | 0.94 nM | 48.7 nM | 102 nM | 61 nM | CC(Oc1ccc2[nH]nc(C(=O)Nc3ccc(N4CCN(C)CC4)cc3)c2c1)c1c(Cl)cncc1Cl (stereo not shown) [Compound 9, 5-(1-(3,5-dichloropyridin-4-yl)ethoxy)-N-(4-(4-methylpiperazin-1-yl)phenyl)-1H-indazole-3-carboxamide]

Reference: patent US12630530B2, “FGFR inhibitor compound and use thereof” (HENAN MEDINNO PHARMACEUTICAL TECHNOLOGY CO., LTD., priority 2020, dated 2026)
